For orientation: pIC50 means the IC50 on a negative log10 scale, so that one unit is a factor of ten.

We go through two molecules from patent publication US12510537B2, “High throughput drug screening methods” (NERD BIO LLC, priority 2020, dated 2025).

One experiment has as its target GSK3beta (Homo sapiens, UniProt P49841). Description: UV-B induced denaturation of cell lysates, immunoblot of soluble fraction, GSK3beta. Type of experiment: binding. The following applies: lysates exposed to UV-B for 4 min; FIG. 29B. On the technique in general: A western blot detects proteins with antibodies after separation by electrophoresis.
The next experiment deals with BCL6 (Homo sapiens, UniProt P41182). Conditions: well-characterized Boehringer Ingelheim inhibitor; read-out: in vitro IC50; cited from earlier work.

pIC50: −log10 of the molar value.

Sequence of GSK3beta (P49841 whole entry, species assumed): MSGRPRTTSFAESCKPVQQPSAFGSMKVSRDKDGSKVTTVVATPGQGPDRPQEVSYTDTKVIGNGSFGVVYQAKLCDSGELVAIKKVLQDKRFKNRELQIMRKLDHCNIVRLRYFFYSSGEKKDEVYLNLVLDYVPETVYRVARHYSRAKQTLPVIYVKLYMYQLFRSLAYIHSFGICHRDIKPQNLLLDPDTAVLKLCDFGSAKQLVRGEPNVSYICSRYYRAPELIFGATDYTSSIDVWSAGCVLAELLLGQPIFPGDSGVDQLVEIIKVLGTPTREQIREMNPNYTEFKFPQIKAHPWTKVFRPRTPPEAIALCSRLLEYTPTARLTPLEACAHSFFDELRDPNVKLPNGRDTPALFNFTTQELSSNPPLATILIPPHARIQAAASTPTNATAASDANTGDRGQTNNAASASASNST

Take `Cc1c[nH]c(-c2cnc(NCCNc3ccc(C#N)cn3)nc2-c2ccc(Cl)cc2Cl)n1` [CHIR99021]: at GSK3beta, the “stabilization of GSK3beta protein from UV-B induced denaturation” value was “stabilization of the GSK3beta protein”.
As for `CNC(=O)COc1cc2cc(Nc3nc(N4CCC(C(=O)N(C)C)CC4)ncc3Cl)cc(OC)c2n(C)c1=O` [BI-3812], the pIC50 on BCL6 is around 8.52.
